Common to all, as to assay type: cell-based, Staphylococcus aureus
One assay concerns Staph aureus 2812. The assay is described as follows: MIC, microtiter broth dilution (CLSI M7-A7), Assay 1, Table 12 column E, no serum. Particulars: for MIC: Staphylococcus aureus, 2812, Staph aureus 2812, Assay 1, no serum. The procedure, abridged:
(§1)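 MIC values in μg/ml, taken as lowest drug concentration without macroscopically visible growth, geometric mean where run repeatedly. For serum-shifted testing, strains grew in Mueller-Hinton Broth plus 50% pooled inactivated human serum; otherwise CLSI M7-A7 microtiter dilution, M100-S16 interpretation.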
A general note: Dilution methods test growth across graded concentrations, often in twofold steps.

A further assay has as its system Staph aureus 2811. The assay is described as follows: MIC, microtiter broth dilution (CLSI M7-A7), Assay 1, Table 12 column D, no serum. Particulars: for MIC: Staphylococcus aureus, 2811, Staph aureus 2811, Assay 1, no serum. In outline: as §1
Assay [1] concerns Staph aureus 1146. The assay is described as follows: MIC in Mueller-Hinton Broth with 50% pooled inactivated human serum, Assay 1, Table 12. Particulars: for MIC: Staphylococcus aureus, 1146, Staph aureus 1146, Assay 1, 50% human serum, read-out: MIC, column C. The procedure, abridged:
as §1

Assay [2] has as its system Staph aureus 1146. The assay is described as follows: MIC, microtiter broth dilution (CLSI M7-A7), Assay 1, Table 12 column B, no serum. The settings on record: for MIC: Staphylococcus aureus, 1146, Staph aureus 1146, Assay 1, no serum. In outline: as §1
The subject of the next assay is Staph aureus 1095 MRSA. The experiment in a line: MIC, microtiter broth dilution (CLSI M7-A7), Assay 1, Table 12 column A, no serum. The settings on record: Assay 1, no serum; for MIC: Staphylococcus aureus, MRSA. The procedure, abridged:
as §1

Converted amounts (≈) assume the structure as drawn.

Usually MIC stands for the lowest concentration that inhibits growth of the organism.

In the case of `COc1ccc2ncc(Cl)c(CCNC3(C(=O)O)CCN(C4CC(c5ccccc5)C4)CC3)c2c1` (stereo not shown) [Example 100, 4-{[2-(3-chloro-6-methoxyquinolin-4-yl)ethyl]amino}-1-(3-phenylcyclobutyl)piperidine-4-carboxylic acid], the MIC in the assay with Staph aureus 2812 is 0.5 µg/mL (≈ 1.01 µM); in the assay with Staph aureus 2811 it was 0.25 µg/mL (≈ 0.506 µM); with Staph aureus 1146 [1], over 64 µg/mL; in the assay on Staph aureus 1146 [2] it was 0.5 µg/mL (≈ 1.01 µM); in the assay on Staph aureus 1095 MRSA it was 0.5 µg/mL (≈ 1.01 µM).
On to `COc1ccc2nccc(C(O)CC[C@@H]3CCN(C4CN(C5CCCCC5)C4)C[C@@H]3C(=O)O)c2c1` (stereo partly drawn) [Example 131, (3R,4R)-1-(1-cyclohexylazetidin-3-yl)-4-[3-hydroxy-3-(6-methoxyquinolin-4-yl)propyl]piperidine-3-carboxylic acid], for which the MIC with Staph aureus 2812, in the assay with Staph aureus 2811, with Staph aureus 1146 [1], against Staph aureus 1146 [2] and with Staph aureus 1095 MRSA was over 64 µg/mL in each case.
For `COc1ccc2ncc(Cl)c(C(O)CC[C@@H]3CCN(C4CC(c5c(F)cccc5F)C4)C[C@@H]3C(=O)O)c2c1` (stereo partly drawn) [Example 213, (3R,4R)-4-[3-(3-chloro-6-methoxyquinolin-4-yl)-3-hydroxypropyl]-1-[3-(2,6-difluorophenyl)cyclobutyl]piperidine-3-carboxylic acid], the “MIC, column E” value in the assay on Staph aureus 2812 (Staph aureus 2812, Assay 1, no serum) is under 0.0625 µg/mL. Besides, the “MIC, column D” value against Staph aureus 2811 (Staph aureus 2811, Assay 1, no serum) was under 0.0625 µg/mL. Besides, the “MIC, column C” value against Staph aureus 1146 [1] (Staph aureus 1146, Assay 1, 50% human serum) worked out at 0.500 µg/mL (≈ 0.917 µM). In addition, the “MIC, column B” value in the assay on Staph aureus 1146 [2] (Staph aureus 1146, Assay 1, no serum) is under 0.0625 µg/mL. In addition, the “MIC, column A” value with Staph aureus 1095 MRSA is under 0.0625 µg/mL.
Turning to `COc1ccc2nccc([C@@H](O)CC[C@@H]3CCN(C4CC(c5cccc(OC)c5F)C4)C[C@@H]3C(=O)O)c2c1` (stereo partly drawn) [Example 208, (3R,4R)-1-[3-(2-fluoro-3-methoxyphenyl)cyclobutyl]-4-[(3S)-3-hydroxy-3-(6-methoxyquinolin-4-yl)propyl]piperidine-3-carboxylic acid], the minimum inhibitory concentration (MIC) against Staph aureus 2812 was 64 µg/mL (≈ 122 µM); against Staph aureus 2811, 32 µg/mL (≈ 61.2 µM); with Staph aureus 1146 [1] it was over 64 µg/mL; against Staph aureus 1146 [2] it was 32 µg/mL (≈ 61.2 µM); in the assay on Staph aureus 1095 MRSA, 64 µg/mL (≈ 122 µM).
In the case of `COc1ccc2nccc(C(O)CC[C@@H]3CCN(C4CC(Cc5cccc(F)c5)C4)C[C@@H]3C(=O)O)c2c1` (stereo partly drawn) [Example 192, (3R,4R)-1-[3-(3-fluorobenzyl)cyclobutyl]-4-[3-hydroxy-3-(6-methoxyquinolin-4-yl)propyl]piperidine-3-carboxylic acid], the MIC with Staph aureus 2812 came out at 2 µg/mL (≈ 3.95 µM); in the assay on Staph aureus 2811 it was 1 µg/mL (≈ 1.97 µM); in the assay on Staph aureus 1146 [1], 32 µg/mL (≈ 63.2 µM); in the assay on Staph aureus 1146 [2], 1 µg/mL (≈ 1.97 µM); against Staph aureus 1095 MRSA it was 4 µg/mL (≈ 7.9 µM).
On to `COc1ccc2nccc(C(F)CC[C@@H]3CCN(C4CC(c5ccccc5)C4)C[C@@H]3C(=O)O)c2c1` (stereo partly drawn) [Example 133, (3R,4R)-4-(3-fluoro-3-(6-methoxyquinolin-4-yl)propyl)-1-(3-phenylcyclobutyl)piperidine-3-carboxylic acid], for which the MIC in the assay on Staph aureus 2812 is at most 0.0625 µg/mL; against Staph aureus 2811 it was 0.125 µg/mL (≈ 0.262 µM); in the assay with Staph aureus 1146 [1] it was 2 µg/mL (≈ 4.2 µM); against Staph aureus 1146 [2] it was at most 0.0625 µg/mL. Also, in the assay with Staph aureus 1095 MRSA, the “MIC, column A” value turned out to be 0.25 µg/mL (≈ 0.525 µM).
As to `COc1ccc2nccc([C@@H](O)CC[C@@H]3CCN(C4CC(c5cc(C(F)(F)F)ccc5F)C4)C[C@@H]3C(=O)O)c2c1` (stereo partly drawn) [Example 62, (3R,4R)-1-{3-[2-fluoro-5-(trifluoromethyl)phenyl]cyclobutyl}-4-[(3S)-3-hydroxy-3-(6-methoxyquinolin-4-yl)propyl]piperidine-3-carboxylic acid], the minimum inhibitory concentration (MIC) against Staph aureus 2812 is 2 µg/mL (≈ 3.57 µM); against Staph aureus 2811, 1 µg/mL (≈ 1.78 µM); in the assay with Staph aureus 1146 [1], 64 µg/mL (≈ 114 µM); in the assay on Staph aureus 1146 [2], 2 µg/mL (≈ 3.57 µM); against Staph aureus 1095 MRSA, 4 µg/mL (≈ 7.14 µM).
As for `COc1ccc2nccc([C@@H](O)CC[C@@H]3CCN(C4CC(c5ccccc5F)C4)C[C@@H]3C(=O)O)c2c1` (stereo partly drawn) [Example 89, (3R,4R)-1-[3-(2-fluorophenyl)cyclobutyl]-4-[(3S)-3-hydroxy-3-(6-methoxyquinolin-4-yl)propyl]piperidine-3-carboxylic acid], the MIC with Staph aureus 2812 was under 0.0625 µg/mL; in the assay on Staph aureus 2811, under 0.0625 µg/mL; in the assay on Staph aureus 1146 [1], 0.5 µg/mL (≈ 1.02 µM); with Staph aureus 1146 [2], under 0.0625 µg/mL; in the assay on Staph aureus 1095 MRSA, under 0.0625 µg/mL.

(Values after patent publication US20080280879A1, “SUBSTITUTED HETEROCYCLIC DERIVATIVES AND THEIR PHARMACEUTICAL USE AND COMPOSITIONS” (priority 2007, published 2008).)
